Reference: patent US20240158448A1, “MULTIVALENT NANO-'SELF' PEPTIDES AND USES THEREOF” (THE TRUSTEES OF THE UNIVERSITY OF PENNSYLVANIA, priority 2021, published 2024)
“Also recorded” adds a separate entry of the source. Where two headings read alike, the source gives them in different places. Non-standard residues stand in square brackets, D forms with d. Primed or numbered codes have the meaning given here. No end group written: not given here. PEG5′ = linker of 5 PEG units between residues

Assays:
human THP-1 macrophages = test: In vitro phagocytosis assay: opsonized human RBCs engulfed by peptide-treated THP-1 macrophages; type: cell-based; conditions: for EC50: opsonized human RBCs, human macrophages
Experimental: In vitro phagocytosis assay. Fresh human RBCs were washed twice with 50 mM EDTA (Thermo Fischer) in PBS (Gibco) then twice with 5% FBS in PBS. RBCs were opsonized with 20 μg/mL rabbit anti-human RBC antibody (Rockland) in 5% FBS for 1 hour at RT with shaking. For CD47 blocked RBCs, 5 μg/mL of mouse anti-human CD47 (B6H12; BD Biosciences) were added. Thereafter, RBCs were washed with PBS three times and stained with PKH26 dye (1:800 dilution in PBS; Sigma) for 1 hour at RT with shaking in the dark. RBCs were washed and resuspended in PBS.
THP-1 monocytes were PMA differentiated in RPMI for 48 hours. Macrophages were then washed with RPMI media three times. For SIRPα blocked THP-1 macrophages, 20 nM, 1 μM or 50 μM of the nano—Self peptides were incubated with the THP-1 macrophages for 1 hour at 37 ° C., 5% CO2 and 95% humidity. Those THP-Is were then washed with RPMI three times.
CO2 and 95% humidity. Macrophages were then washed with RPMI three times. Adherent and uninternalized RBCs were lysed with water for 30 seconds followed by immediate replacement with RPMI media. In order to distinguish remaining adherent RBCs from internalized RBCs, opsonized RBCs were stained with AlexaFluor 647 donkey anti-rabbit (binds to rabbit polyclonal opsonin on RBC; Invitrogen) IgG (1:1000) while unopsonized, CD47 blocked RBCs were stained with AlexaFluor 647 donkey anti-mouse (binds to mouse monoclonal anti-CD47 on RBCs; Invitrogen) IgG (1:1000) for 30 minutes. After washing, macrophages were fixed with 4% formaldehyde for 15 minutes at RT, washed with PBS, stained with 1 μg/mL Hoechst 33342, and then washed with PBS again. Fluorescence imaging was performed as described elsewhere herein and quantification was done using ImageJ. At least 200 cells were analyzed and experiments were repeated at least three times.

THP-1 macrophages = test: Peptide inhibition assay (competition with FAM-labeled nS-F on THP-1 macrophages); type: binding, human; conditions: pre-treatment with unlabeled peptide
Experimental: Peptide inhibition assay. THP-1 monocytes were PMA differentiated in RPMI for 48 hours. […] To measure background internalization of the FAM-labeled peptides, nS-X-FAM was used. To determine the efficacy of the bivalent peptides to inhibit SIRPα binding, nS-X was used. Excess peptides were washed off with PBS and cells were fixed with 4% formaldehyde for 15 minutes at RT, washed with PBS, stained with 1 μg/mL Hoechst 33342, and then washed with PBS again. Fluorescence imaging was performed as described elsewhere herein and quantification was done using ImageJ.

[1] = system: mouse bone marrow derived macrophages (BMDMs); test: Phagocytosis of anti-TYRP1 opsonized B16F10 melanoma cells by mouse bone marrow derived macrophages; type: cell-based
Experimental: B16F10 cells: Bone marrow cells were isolated from femurs and tibias of healthy C57BL6/J mice (The Jackson Laboratory) and cultured in 10-cm petri dishes containing IMDM (Gibco) supplemented with 10% v/v FBS, 1% v/v penicillin/streptomycin, and 1:10,000 macrophage colony stimulating factor cytokine (M-CSF; Biolegend) for 7 days at 37° C., 5% CO2 and 95% humidity. All animal experiments were performed according to protocols approved by the University of Pennsylvania's IACUC (protocol #805977 and #804455). The resulting mouse bone marrow derived macrophages (BMDMs) were washed with PBS containing Ca2^+/Mg2^+ (Gibco) then detached with 0.25% trypsin-EDTA (Gibco) and re-plated in 6-well tissue culture plates using IMDM+M-CSF for 24 hours.
Mouse melanoma B16F10 cells were washed with PBS containing Ca2-/Mg2- and then trypsinized with 0.05% trypsin-EDTA. After washing twice with PBS, the cells were labeled with 1:10,000 CFDA—SE (Thermo Fisher) in PBS for 10 minutes. B16F10 cells were opsonized with 10 μg/mL anti-TYRP1 (TA99; Bio X Cell) in PBS for 2 hours at 4° C.with occasional inverting. For CD47 blocked B16F10 cells, 5 μg/mL of […] were added. During the incubation time, the BMDMs were washed with media then stained with 1:2,000 CellTracker Deep Red (Thermo Fisher) in PBS with Ca2^+/Mg2^+ for 10 min. After washing, 50 μM of the nano—Self peptides were incubated with the BMDMs for 1 hour at 37° C., 5% CO2 and 95% humidity. Finally, BMDMs were washed twice with PBS and then twice with serum-free IMDM.
Without removing the supernatant, the opsonized melanoma cells were added to the labeled BMDMs at a ratio of 2:1 for 2 hours at 37° C., 5% CO2 and 95% humidity. During the last 15 minutes of the assay, the cells were Hoechst stained. The wells were washed with serum free IMDM then fixed with 4% formaldehyde for 15 minutes at RT, and PBS washed. Fluorescence imaging was performed using an Olympus IX71 with a digital EMCCD camera (Cascade 512B) and a 40×/0.6 NA objective. Quantification was done with ImageJ (NIH). At least 200 cells were analyzed and two-tailed student's t-test was used to determine statistical significance.

[2] = system: A549 (SIRPα positive) cells; test: Confocal live staining with FAM-labeled peptides, A549 cells; type: binding, human; conditions: 100 uM and 1 μM FAM-labeled peptide
Experimental: SIRPα staining and confocal imaging. THP-1 monocytes were PMA-differentiated in RPMI 1640 for 24 hours. J774A.1, A549, and COS-1 cells were plated for 24 hours in media, respectively. Cells were washed with respective media prior to addition of fluorescent peptides. The peptides were left to incubate for 1 hour at 37 ° C., 5% CO2 and 95% humidity. For fixed cell staining, cells were incubated with 4% formaldehyde (Pierce) for 15 minutes prior to the addition of fluorescent peptides whereas for live cell staining, fixation was done after incubation with the FAM-labeled peptides. Nuclei were stained with 1 μg/mL Hoechst 33342 (Invitrogen). Cells were the washed PBS three times before analysis. Fluorescence imaging of fixed cells was performed using an Olympus IX71 with a digital EMCCD camera (Cascade 512B) and a 40×/0.6 NA objective. […] Quantification was done with ImageJ (NIH).
In order to visualize the uneven binding of the peptides to the surface of the macrophages, a live staining experiment of THP-1, J774A.1, and A549 cells, which all express SIRPα at different levels, was performed with FAM-labeled nS-wt and nS-X and analyzed by confocal microscopy (FIG. 11). […] Fluorescence of nS-X was consistently lower on THP-1 and J774A.1 macrophages relative to nS-wt. […]

Row | Substance | effect on phagocytosis of opsonized RBCs (words) (human THP-1 macrophages; 20 nM peptide) | macrophages with at least one opsonized RBC internalized (human THP-1 macrophages; 20 nM peptide, anti-RBC opsonized RBCs, 1 h assay) [%] | increase in phagocytosis at higher concentration (human THP-1 macrophages; 1 μM, 50 µM versus 20 nM) [%] | EC50 (human THP-1 macrophages; read-out: efficacy constant (Keff) for phagocytosis) [nM] | inhibition of monovalent nS-F-FAM binding to macrophages (THP-1 macrophages) | activity of bivalent peptide in primary mouse macrophages [1] | macrophages containing opsonized RBCs (human THP-1 macrophages; maximum peptide concentration 50 μM, anti-RBC opsonized RBCs) [%] | EC50 (human THP-1 macrophages; read-out: effective potency (keff) for phagocytosis) [nM] | effect on phagocytosis of opsonized RBCs (words) (human THP-1 macrophages; saturating / 50 μM peptide) | effect on phagocytosis of opsonized WT and SIRPα KO B16 cells ([1]; 50 μM peptide) | binding to A549 cells [2]
1 | (VTELFREG-PEG5)2-K (VTELFREG[PEG5′]K[PEG5′]GERFLETV; not fully specified; also: bivalent lysine core) [nS-FF, bivalent nS-F linked through PEG5 linkers to a C-terminal Lys] | successful in activating THP-1 to engulf opRBCs; also recorded: more potent in enhancing phagocytosis | ~40 | ~5 | ~8 | further decreased | low activity; also recorded: reduced activity with mouse macrophages | – | – | – | – | –
2 | VTELTREG [nS-wt, 8-amino acid wild type nano-Self peptide from the CD47 loop, C-terminal amide] | – | – | – | – | – | – | ~30 | ~1000 | least effective among monovalents; also recorded: Lower levels of phagocytosis; also recorded: gives the same result as anti-CD47 | lower levels | binding was observed at 100 uM on A549 cells all around the surface
